Results reported in publication PMC11111408, “Concurrent inhibition of oncogenic and wild-type RAS-GTP for cancer therapy” (Nature, 2024).
Read-outs that look alike come from different tables or passages of the source.

Tested on: panel of 183 cancer cell lines
Experiment: Cell panel of 183 cancer cell lines, viability (CTG) at Crown Bioscience
Format: cell-based
Conditions: Homo sapiens
Source text: The panel consisted of cell lines with any substitution at position 12 of KRAS, NRAS or HRAS (KRAS(G12X), NRAS(G12X), HRAS(G12X)); substitutions in KRAS, NRAS or HRAS at any position other than 12, 13 and 61 (KRAS(other/VUS), NRAS(other/VUS), HRAS(other/VUS)); other oncogenic mutations in the RAS pathway (ABL1, ALK, ARAF, BRAF, CBL, EGFR, ERBB2, ERBB3, ERBB4, ERRFI1, FGFR1, FGFR2, FGFR3, FGFR4, FLT3, HRAS, IGF1R, JAK2, KIT, MAP2K1, MAP2K2, MAPK1, MET, NF1, NRAS, NTRK1, NTRK2, NTRK3, PDGFRA, PTPN11, RAC1, RAF1, RASA1, RET, RIT1, ROS1 and SOS1); and no oncogenic mutations in the RAS pathway. […] Cells were incubated for 120 h, and cell viability was determined using the CellTiter-Glo Luminescent Cell Viability Assay (CTG) (Promega, G7572) according to the manufacturer’s instructions.

CCn1c(-c2cc(N3CCN(C4CC4)CC3)cnc2[C@H](C)OC)c2c3cc(ccc31)-c1csc(n1)C[C@H](NC(=O)[C@H]1[C@@H]3COC[C@@H]31)C(=O)N1CCC[C@H](N1)C(=O)OCC(C)(C)C2 [RMC-7977]
EC50 (JHH-2, read-out: RMC-7977 EC50 (M), JHH2, ROS1 fusion, Liver): 5.37e-09 M
EC50 (KARPAS-299, read-out: RMC-7977 EC50 (M), KARPAS299, ALK fusion, Blood/lymphoma): 9.47e-08 M
EC50 (KATO III, read-out: RMC-7977 EC50 (M), KATOIII, RAS pathway WT, Stomach): 1.48e-08 M
EC50 (KHOS/NP, read-out: RMC-7977 EC50 (M), KHOSNP, KRAS A59T, Bone): 1.02e-09 M
EC50 (KM 12L4, read-out: RMC-7977 EC50 (M), KM12L4, NTRK1 fusion, Large intestine/Colorectum): 5.14e-09 M
EC50 (KRAS^G12X mutant cell lines, read-out: median EC50): 2.4e-09 M
EC50 (KYSE-150, read-out: RMC-7977 EC50 (M), KYSE150, ERBB3 mut, HN/Esophagus): 5.92e-09 M
EC50 (KYSE-270, KYSE270, RTKMUT/fusion, read-out: EC50): 5.99e-09 M
EC50 (KYSE-270, read-out: RMC-7977 EC50 (M), KYSE270, EGFR mut, HN/Esophagus): 5.99e-09 M
EC50 (KYSE-410, read-out: RMC-7977 EC50 (M), KYSE410, KRAS G12C, HN/Esophagus): 4.07e-09 M
EC50 (LC-2-ad, read-out: RMC-7977 EC50 (M), LC2AD, RET fusion, Lung): 5.15e-09 M
EC50 (LCLC-97TM1, read-out: RMC-7977 EC50 (M), LCLC97TM1, KRAS G12V, Lung): 3.47e-10 M
EC50 (LCLC-103H, read-out: RMC-7977 EC50 (M), LCLC103H, NF1 LOF, Lung): 3.67e-07 M
EC50 (LN-229, read-out: RMC-7977 EC50 (M), LN229, PTPN11 mut, Brain&Nerves): 6.69e-09 M
EC50 (LS174T, read-out: RMC-7977 EC50 (M), LS174T, KRAS G12D, Large intestine/Colorectum): 2.24e-08 M
EC50 (LS180, read-out: RMC-7977 EC50 (M), LS180, KRAS G12D, Large intestine/Colorectum): 1.62e-08 M
EC50 (LS-123, read-out: RMC-7977 EC50 (M), LS123, KRAS G12S, Large intestine/Colorectum): 1.29e-09 M
EC50 (LS-513, read-out: RMC-7977 EC50 (M), LS513, KRAS G12D, Large intestine/Colorectum): 1.2e-09 M
EC50 (LS-1034, read-out: RMC-7977 EC50 (M), LS1034, KRAS A146T, Large intestine/Colorectum): 2.51e-08 M
EC50 (LoVo, read-out: RMC-7977 EC50 (M), LOVO, KRAS G13D, Large intestine/Colorectum): 5.62e-08 M
EC50 (MCF7, read-out: RMC-7977 EC50 (M), MCF7, RAS pathway WT, Breast): > 1e-06 M
EC50 (MES-SA, read-out: RMC-7977 EC50 (M), MESSA, RAS pathway WT, Uterus): > 1e-06 M
EC50 (MFE-296, read-out: RMC-7977 EC50 (M), MFE296, RAS pathway WT, Uterus): > 1e-06 M
EC50 (MIA PaCa-2, read-out: RMC-7977 EC50 (M), MIAPACA2, KRAS G12C, Lung): 4.27e-09 M
EC50 (MKN-1, read-out: RMC-7977 EC50 (M), MKN1, RAS pathway WT, Stomach): 4.87e-08 M
EC50 (MKN-45, read-out: RMC-7977 EC50 (M), MKN45, MET amp, Stomach): 8.64e-09 M
EC50 (MeWo, read-out: RMC-7977 EC50 (M), MEWO, NF1 LOF, Skin): 4.86e-09 M
EC50 (NCI-H23, read-out: RMC-7977 EC50 (M), NCIH23, KRAS G12C, Lung): 8.51e-10 M
EC50 (NCI-H358, read-out: RMC-7977 EC50 (M), NCIH358, KRAS G12C, Lung): 6.31e-10 M
EC50 (NCI-H441, read-out: RMC-7977 EC50 (M), NCIH441, KRAS G12V, Lung): 3.89e-10 M
EC50 (NCI-H460, read-out: RMC-7977 EC50 (M), NCIH460, KRAS Q61H, Lung): 6.17e-09 M
EC50 (NCI-H508, read-out: RMC-7977 EC50 (M), NCIH508, BRAF mut other, Large intestine/Colorectum): 1.21e-07 M
EC50 (NCI-H520, read-out: RMC-7977 EC50 (M), NCIH520, RAS pathway WT, Lung): 2.85e-08 M
EC50 (NCI-H716, read-out: RMC-7977 EC50 (M), NCIH716, KRAS R97I, Large intestine/Colorectum): 2.75e-09 M
EC50 (NCI-H727, read-out: RMC-7977 EC50 (M), NCIH727, KRAS G12V, Lung): 7.24e-10 M
EC50 (NCI-H747, read-out: RMC-7977 EC50 (M), NCIH747, KRAS G13D, Large intestine/Colorectum): 1.82e-09 M
EC50 (NCI-H1155, read-out: RMC-7977 EC50 (M), NCIH1155, KRAS Q61H, Lung): > 1e-06 M
EC50 (NCI-H1299, read-out: RMC-7977 EC50 (M), NCIH1299, NRAS Q61K, Lung): 1.78e-09 M
EC50 (NCI-H1373, read-out: RMC-7977 EC50 (M), NCIH1373, KRAS G12C, Lung): 1.78e-09 M
EC50 (NCI-H1395, read-out: RMC-7977 EC50 (M), NCIH1395, BRAF mut other, Lung): > 1e-06 M
EC50 (NCI-H1581, read-out: RMC-7977 EC50 (M), NCIH1581, RAS pathway WT, Lung): 5.55e-08 M
EC50 (NCI-H1650, read-out: RMC-7977 EC50 (M), NCIH1650, EGFR mut, Lung): 4.04e-08 M
EC50 (NCI-H1666, read-out: RMC-7977 EC50 (M), NCIH1666, BRAF mut other, Lung): 8.2e-09 M
EC50 (NCI-H1792, read-out: RMC-7977 EC50 (M), NCIH1792, KRAS G12C, Lung): 1.91e-09 M
EC50 (NCI-H1838, read-out: RMC-7977 EC50 (M), NCIH1838, NF1 LOF, Lung): 8.76e-09 M
EC50 (NCI-H1915, read-out: RMC-7977 EC50 (M), NCIH1915, HRAS Q61L, Lung): 1.62e-08 M
EC50 (NCI-H1944, read-out: RMC-7977 EC50 (M), NCIH1944, KRAS G13D, Lung): 3.16e-08 M
EC50 (NCI-H1975, read-out: RMC-7977 EC50 (M), NCIH1975, EGFR mut, Lung): 4.07e-09 M
EC50 (NCI-H1993, read-out: RMC-7977 EC50 (M), NCIH1993, MET amp, Lung): 4.57e-09 M
EC50 (NCI-H2009, read-out: RMC-7977 EC50 (M), NCIH2009, KRAS G12A, Lung): 5.75e-09 M
EC50 (NCI-H2087, read-out: RMC-7977 EC50 (M), NCIH2087, NRAS Q61K, Lung): 5.89e-10 M
EC50 (NCI-H2110, read-out: RMC-7977 EC50 (M), NCIH2110, PTPN11 mut, Lung): 7.95e-09 M
EC50 (NCI-H2122, read-out: RMC-7977 EC50 (M), NCIH2122, KRAS G12C, Lung): 9.33e-10 M
EC50 (NCI-H2172, read-out: RMC-7977 EC50 (M), NCIH2172, RAS pathway WT, Lung): 4.73e-07 M
EC50 (NCI-H2228, read-out: RMC-7977 EC50 (M), NCIH2228, ALK fusion, Lung): 1.41e-08 M
EC50 (NCI-H3122, read-out: RMC-7977 EC50 (M), NCIH3122, ALK fusion, Lung): 4.62e-09 M
EC50 (NCI-H3255, read-out: RMC-7977 EC50 (M), NCIH3255, EGFR mut, Lung): 6.28e-09 M
EC50 (NF1^LOF cell lines, read-out: median EC50): 3.25e-08 M
EC50 (NRAS and HRAS mutant cell lines, read-out: median EC50): 6.76e-09 M
EC50 (NUGC-4, read-out: RMC-7977 EC50 (M), NUGC4, NF1 LOF, Stomach): 3.16e-09 M
